EC50 and IC50 data for nine compounds are collected here from patent US11753395B2 (Kinnate Biopharma Inc., priority 2021, dated 2023).

Each structure is given as a SMILES string.

One test deals with T1, Ba/F3-TPR-MET cells (Homo sapiens, UniProt P08581).
T1 construct: fused on or other part: P12270 (Nucleoprotein TPR)
The test is described as follows: CellTiter-Glo Cell Viability Assay, Ba/F3-TPR-MET. In kind it is cell-based. Particulars: 72 hours. In short, it runs like this:
(§1)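 Ba/F3 cells carrying TPR-MET or TPR-MET-D1228N, 3000 per well, were exposed for 72 h at 37 °C to 9-point 3-fold compound dilutions at 0.1% DMSO. Viability was read as ATP by CellTiter-Glo 2.0 luminescence, and IC50 values came from curve fitting.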
For orientation: Cellular ATP, detected with luciferase, serves as a proxy for viable cell number.

The target of test [1] is T2, Ba/F3-TPR-MET-D1228N cells (Homo sapiens, UniProt P08581, D1228N, cells depend on it).
T2 construct: fused on or other part: P12270 (Nucleoprotein TPR)
T2 sequence (P08581 whole entry D1228N, the tested form may be a part): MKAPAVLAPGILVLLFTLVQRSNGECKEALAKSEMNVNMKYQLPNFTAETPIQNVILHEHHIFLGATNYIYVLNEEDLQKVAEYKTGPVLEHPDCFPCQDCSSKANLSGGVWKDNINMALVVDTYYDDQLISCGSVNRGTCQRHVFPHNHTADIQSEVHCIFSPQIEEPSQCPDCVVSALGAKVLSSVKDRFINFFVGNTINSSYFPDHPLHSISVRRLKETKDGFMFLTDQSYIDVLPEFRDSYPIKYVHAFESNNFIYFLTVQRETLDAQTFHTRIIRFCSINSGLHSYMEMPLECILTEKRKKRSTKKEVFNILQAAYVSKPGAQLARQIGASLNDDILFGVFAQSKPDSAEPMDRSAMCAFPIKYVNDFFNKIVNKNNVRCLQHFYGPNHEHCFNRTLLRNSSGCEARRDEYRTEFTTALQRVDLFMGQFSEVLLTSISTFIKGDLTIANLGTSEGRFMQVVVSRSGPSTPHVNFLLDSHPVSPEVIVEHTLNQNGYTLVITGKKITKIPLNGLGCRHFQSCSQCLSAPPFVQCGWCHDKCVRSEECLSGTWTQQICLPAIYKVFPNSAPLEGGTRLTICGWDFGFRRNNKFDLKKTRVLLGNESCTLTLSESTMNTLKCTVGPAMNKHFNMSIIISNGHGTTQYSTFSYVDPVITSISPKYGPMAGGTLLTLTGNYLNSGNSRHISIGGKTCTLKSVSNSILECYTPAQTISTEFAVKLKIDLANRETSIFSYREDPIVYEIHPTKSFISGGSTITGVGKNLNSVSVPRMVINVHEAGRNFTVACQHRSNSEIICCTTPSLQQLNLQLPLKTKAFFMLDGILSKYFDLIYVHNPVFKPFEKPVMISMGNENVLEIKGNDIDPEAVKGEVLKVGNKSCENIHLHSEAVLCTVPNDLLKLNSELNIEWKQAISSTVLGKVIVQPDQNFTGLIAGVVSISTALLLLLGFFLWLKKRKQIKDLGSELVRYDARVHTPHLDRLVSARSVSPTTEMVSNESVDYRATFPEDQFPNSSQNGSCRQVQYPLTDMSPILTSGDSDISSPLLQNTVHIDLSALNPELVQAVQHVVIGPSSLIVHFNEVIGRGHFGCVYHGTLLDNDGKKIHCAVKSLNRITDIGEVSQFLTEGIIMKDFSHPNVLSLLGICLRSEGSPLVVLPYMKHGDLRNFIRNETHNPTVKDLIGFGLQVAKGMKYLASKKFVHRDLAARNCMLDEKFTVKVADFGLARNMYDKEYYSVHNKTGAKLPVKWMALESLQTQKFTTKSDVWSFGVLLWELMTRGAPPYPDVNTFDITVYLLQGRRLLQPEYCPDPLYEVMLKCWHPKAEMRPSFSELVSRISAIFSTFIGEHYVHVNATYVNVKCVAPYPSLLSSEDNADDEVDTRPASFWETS
The test is described as follows: CellTiter-Glo Cell Viability Assay, Ba/F3-TPR-MET-D1228N. The format is cell-based. Particulars: 72 hours. In short, it runs like this:
as §1

A further test addresses T3, MET D1228N (Homo sapiens, UniProt P08581, D1228N).
T3 construct: purchased Signalchem M52-12IG
The test is described as follows: MET D1228N Mobility Shift Assay. Particulars: biochemical assay IC50; 100 μM ATP, 60 minute kinase reaction. The method in brief: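 Enzyme at 0.313 nM preincubated 30 min at room temperature with 1.5 μM FAM-labelled peptide and 10 mM MgCl2 in HEPES buffer with DTT; reaction started with 100 μM ATP, run 60 min, stopped with EDTA. Substrate/product separated by microfluidic mobility shift; IC50 from inhibition of % conversion.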

A further test deals with T4, MET (Homo sapiens, UniProt P08581).
T4 construct: purchased Carna Biosciences 08-151
T4 sequence (P08581 25-1390): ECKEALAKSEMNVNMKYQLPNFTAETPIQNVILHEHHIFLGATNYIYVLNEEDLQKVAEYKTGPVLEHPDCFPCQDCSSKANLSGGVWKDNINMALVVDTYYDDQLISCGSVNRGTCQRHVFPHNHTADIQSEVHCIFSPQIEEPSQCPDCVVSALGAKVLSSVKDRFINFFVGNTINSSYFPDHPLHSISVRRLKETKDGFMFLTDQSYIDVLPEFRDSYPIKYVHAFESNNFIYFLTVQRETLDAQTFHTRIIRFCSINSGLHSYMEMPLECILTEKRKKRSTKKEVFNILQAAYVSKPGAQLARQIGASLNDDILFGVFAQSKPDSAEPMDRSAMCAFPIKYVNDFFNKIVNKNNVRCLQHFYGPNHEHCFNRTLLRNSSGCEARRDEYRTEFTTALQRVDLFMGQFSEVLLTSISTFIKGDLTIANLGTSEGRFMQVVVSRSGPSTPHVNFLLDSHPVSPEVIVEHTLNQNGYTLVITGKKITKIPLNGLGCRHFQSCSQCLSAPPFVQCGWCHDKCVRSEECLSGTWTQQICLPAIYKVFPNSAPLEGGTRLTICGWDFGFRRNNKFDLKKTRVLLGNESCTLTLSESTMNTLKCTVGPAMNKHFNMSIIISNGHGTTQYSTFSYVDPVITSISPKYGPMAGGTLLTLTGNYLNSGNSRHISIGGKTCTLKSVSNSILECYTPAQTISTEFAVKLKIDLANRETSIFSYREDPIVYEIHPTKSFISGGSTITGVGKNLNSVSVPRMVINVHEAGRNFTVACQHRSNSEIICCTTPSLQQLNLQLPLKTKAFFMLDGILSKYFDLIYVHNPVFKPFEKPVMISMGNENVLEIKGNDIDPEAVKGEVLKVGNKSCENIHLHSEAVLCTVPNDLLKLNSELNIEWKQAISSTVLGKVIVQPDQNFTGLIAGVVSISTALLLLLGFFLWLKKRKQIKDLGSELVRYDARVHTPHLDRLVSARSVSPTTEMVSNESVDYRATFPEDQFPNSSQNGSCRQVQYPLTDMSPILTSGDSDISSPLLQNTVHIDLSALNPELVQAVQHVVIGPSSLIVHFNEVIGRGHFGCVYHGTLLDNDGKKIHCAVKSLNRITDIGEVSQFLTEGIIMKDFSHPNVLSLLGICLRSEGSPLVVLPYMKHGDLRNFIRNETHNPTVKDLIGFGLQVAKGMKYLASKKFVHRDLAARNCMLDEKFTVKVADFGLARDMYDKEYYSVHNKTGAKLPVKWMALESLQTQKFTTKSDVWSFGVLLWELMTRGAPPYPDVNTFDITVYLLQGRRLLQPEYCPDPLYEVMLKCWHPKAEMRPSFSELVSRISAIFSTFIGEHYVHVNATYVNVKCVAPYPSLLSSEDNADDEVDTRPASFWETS
The test is described as follows: MET Mobility Shift Assay. Particulars: biochemical assay IC50; 100 μM ATP, 60 minute kinase reaction. In short, it runs like this: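 Recombinant MET at 0.625 nM was pre-incubated 30 min at room temperature with 1.5 μM FLPeptide30 and 10 mM MgCl2 in HEPES buffer with DTT. The reaction was started with 100 μM ATP, ran 60 min, and was stopped with EDTA. Microfluidic mobility-shift % conversion gave IC50.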

T1 sequence (P08581 whole entry, change not shown, the tested form may be a part): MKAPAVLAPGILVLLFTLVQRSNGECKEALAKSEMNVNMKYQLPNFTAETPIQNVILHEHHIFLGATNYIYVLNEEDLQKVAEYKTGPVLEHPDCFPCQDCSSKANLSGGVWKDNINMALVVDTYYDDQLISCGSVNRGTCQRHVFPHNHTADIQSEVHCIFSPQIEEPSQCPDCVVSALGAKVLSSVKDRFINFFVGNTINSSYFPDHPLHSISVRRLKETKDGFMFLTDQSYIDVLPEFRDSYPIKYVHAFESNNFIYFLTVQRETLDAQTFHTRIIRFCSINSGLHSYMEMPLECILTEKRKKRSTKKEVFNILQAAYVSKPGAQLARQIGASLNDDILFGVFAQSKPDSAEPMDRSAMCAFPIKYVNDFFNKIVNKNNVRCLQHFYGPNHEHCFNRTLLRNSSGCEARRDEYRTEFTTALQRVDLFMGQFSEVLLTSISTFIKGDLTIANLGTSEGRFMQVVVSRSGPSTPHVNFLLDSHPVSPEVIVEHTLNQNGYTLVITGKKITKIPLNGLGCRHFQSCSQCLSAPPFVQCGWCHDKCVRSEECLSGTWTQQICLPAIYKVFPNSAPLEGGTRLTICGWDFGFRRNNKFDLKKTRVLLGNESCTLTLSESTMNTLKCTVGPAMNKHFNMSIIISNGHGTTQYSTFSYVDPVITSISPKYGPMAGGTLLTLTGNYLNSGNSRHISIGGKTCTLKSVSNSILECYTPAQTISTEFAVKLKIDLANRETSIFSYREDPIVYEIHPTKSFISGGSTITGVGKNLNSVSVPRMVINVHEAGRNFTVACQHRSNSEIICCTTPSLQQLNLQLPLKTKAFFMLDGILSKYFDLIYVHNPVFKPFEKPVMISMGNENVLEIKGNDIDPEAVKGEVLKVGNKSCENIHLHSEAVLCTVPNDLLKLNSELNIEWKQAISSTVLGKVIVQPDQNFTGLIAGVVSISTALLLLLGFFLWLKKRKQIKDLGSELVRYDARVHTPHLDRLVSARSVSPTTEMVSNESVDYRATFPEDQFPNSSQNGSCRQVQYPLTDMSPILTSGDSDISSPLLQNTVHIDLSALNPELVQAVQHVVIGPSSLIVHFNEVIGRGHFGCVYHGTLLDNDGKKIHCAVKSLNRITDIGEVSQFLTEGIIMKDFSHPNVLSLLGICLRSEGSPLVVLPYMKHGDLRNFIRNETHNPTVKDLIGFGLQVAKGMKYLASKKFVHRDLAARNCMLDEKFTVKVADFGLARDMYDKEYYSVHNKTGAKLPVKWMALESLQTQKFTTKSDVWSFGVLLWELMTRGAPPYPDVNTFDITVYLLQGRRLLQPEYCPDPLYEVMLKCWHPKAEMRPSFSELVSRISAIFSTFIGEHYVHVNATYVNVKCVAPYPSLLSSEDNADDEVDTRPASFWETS

For orientation: EC50 means the concentration giving half of the maximal effect. Lower therefore signals an effect from little substance. In general, IC50 refers to the concentration that gives 50% inhibition. Consider `CNCCOc1cc2nccc(Oc3c(F)cc(NC(=O)c4cnc(NCCOC)cc4OC)cc3F)c2cc1OC` [Example 46, N-(3,5-difluoro-4-((6-methoxy-7-(2-(methylamino)ethoxy)quinolin-4-yl)oxy)phenyl)-4-methoxy-6-((2-methoxyethyl)amino)pyridine-3-carboxamide], for which the EC50 (on Ba/F3-TPR-MET cells; in test [1]) was ≤ 100 nM throughout. Further, the IC50 on MET D1228N and at MET was ≤ 100 nM each time.
For the compound `CNCCOc1ccc2c(Oc3c(F)cc(NC(=O)c4ccncc4OC4CC4)cc3F)ccnc2c1` [Example 81, 3-cyclopropoxy-N-(3,5-difluoro-4-((7-(2-(methylamino)ethoxy)quinolin-4-yl)oxy)phenyl)isonicotinamide], the EC50 (on Ba/F3-TPR-MET cells; in test [1]) was ≤ 100 nM in each case. Further, the IC50 on MET D1228N and at MET was ≤ 100 nM each time.
On to `CCOc1ccncc1C(=O)Nc1cc(F)c(Oc2ccnc3cc(OCCNC)c(OC)cc23)c(F)c1` [Example 5, N-(3,5-difluoro-4-((6-methoxy-7-(2-(methylamino)ethoxy)quinolin-4-yl)oxy)phenyl)-4-ethoxypyridine-3-carboxamide], for which the EC50 (on Ba/F3-TPR-MET cells; in test [1]) was ≤ 100 nM throughout. Also, the IC50 on MET D1228N and at MET was ≤ 100 nM in each case.
With `COc1cc2nccc(Oc3c(F)cc(NC(=O)c4c(OCC(F)F)ccnc4F)cc3F)c2cc1OCCO` [Example 142, N-(3,5-difluoro-4-((6-(2-hydroxyethoxy)-7-methoxyquinolin-4-yl)oxy)phenyl)-4-(2,2-difluoroethoxy)-2-fluoropyridine-3-carboxamide], the EC50 (at Ba/F3-TPR-MET cells; in test [1]) was ≤ 100 nM throughout. In addition, the IC50 at MET D1228N and on MET was ≤ 100 nM in each case.
Turning to `CC(C)(O)COc1ccc2c(Oc3c(F)cc(NC(=O)c4cnccc4OC4CC4)cc3F)ccnc2c1` [Example 104, 4-cyclopropoxy-N-(3,5-difluoro-4-{[7-(2-hydroxy-2-methylpropoxy)quinolin-4-yl]oxy}phenyl)pyridine-3-carboxamide], the EC50 was 1000 to 10000 nM at Ba/F3-TPR-MET cells and 100 to 1000 nM in test [1]. In addition, the IC50 at MET D1228N and on MET was ≤ 100 nM throughout.
For the compound `CNCCOc1cc2nccc(Oc3c(F)cc(NC(=O)c4ncccc4OC4CC4)cc3F)c2cc1OC` [Example 77, 3-cyclopropoxy-N-[3,5-difluoro-4-({6-methoxy-7-[2-(methylamino)ethoxy]quinolin-4-yl}oxy)phenyl]pyridine-2-carboxamide], the EC50 (at Ba/F3-TPR-MET cells; in test [1]) was ≤ 100 nM throughout. Further, the IC50 at MET D1228N and at MET was ≤ 100 nM throughout.
On to `COc1ccncc1C(=O)Nc1cc(F)c(Oc2ccnc3cc(OCC(C)(C)O)ccc23)c(F)c1` [Example 40, N-(3,5-difluoro-4-{[7-(2-hydroxy-2-methylpropoxy)quinolin-4-yl]oxy}phenyl)-4-methoxypyridine-3-carboxamide], for which the EC50 (at Ba/F3-TPR-MET cells; in test [1]) was 100 to 1000 nM each time. Also, the IC50 at MET D1228N and at MET was ≤ 100 nM each time.
For the compound `COc1cc2c(Oc3c(F)cc(NC(=O)c4cnccc4OC)cc3F)ccnc2cc1OC(F)F` [Example 38, N-(4-((7-(difluoromethoxy)-6-methoxyquinolin-4-yl)oxy)-3,5-difluorophenyl)-4-methoxypyridine-3-carboxamide], the EC50 (on Ba/F3-TPR-MET cells; in test [1]) was > 10000 nM each time. Besides, the IC50 on MET D1228N and on MET was ≤ 100 nM throughout.
For `COCCOc1cc2nccc(Oc3c(F)cc(NC(=O)c4cnccc4OC4CC4)cc3F)c2nc1OC` [Example 136, 4-cyclopropoxy-N-(3,5-difluoro-4-{[6-methoxy-7-(2-methoxyethoxy)-1,5-naphthyridin-4-yl]oxy}phenyl)pyridine-3-carboxamide], the EC50 (at Ba/F3-TPR-MET cells; in test [1]) was ≤ 100 nM in each case. The IC50 on MET D1228N and on MET was ≤ 100 nM in each case.
